The record followed here is patent US5654315A, “Quinuclidine compounds useful in treating diseases” (Imperial Chemical Industries PLC, priority 1991, dated 1997).

The target in one assay is T1, Squalene synthase (Rattus norvegicus, UniProt Q02769).
T1 construct: rat liver microsomal protein; from tissue; host or cells: rat liver microsomes
T1 sequence (Q02769 1-416): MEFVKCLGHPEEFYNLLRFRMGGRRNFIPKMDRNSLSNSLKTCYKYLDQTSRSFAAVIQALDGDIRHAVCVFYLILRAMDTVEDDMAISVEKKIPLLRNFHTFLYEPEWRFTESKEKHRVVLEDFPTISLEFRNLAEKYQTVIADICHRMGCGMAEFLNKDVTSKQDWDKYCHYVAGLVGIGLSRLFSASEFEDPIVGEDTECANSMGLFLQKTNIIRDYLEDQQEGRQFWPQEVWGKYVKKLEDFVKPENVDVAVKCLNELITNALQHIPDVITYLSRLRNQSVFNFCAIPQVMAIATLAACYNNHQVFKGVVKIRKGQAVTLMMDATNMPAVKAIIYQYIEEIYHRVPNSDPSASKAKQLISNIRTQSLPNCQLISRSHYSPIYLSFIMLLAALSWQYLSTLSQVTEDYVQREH
As to the kind of experiment: Inhibition of squalene synthase (formation of squalene from tritiated farnesyl pyrophosphate, rat liver microsomes). The class given is biochemical. As to conditions: rat liver microsomal protein; 20 μM 1-[3H]-farnesyl pyrophosphate; 15 minutes; 37° C.; read-out: IC50 (concentration which results in a 50% inhibition of squalene production). The method, then:
(a) Inhibition of Squalene synthase
In this test, the ability of a compound to prevent the formation of squalene from a radioactive substrate (tritiated farnesyl pyrophosphate) is assessed.
The test compound is incubated at a concentration of 25 micromolar in 200 μl of a buffered solution containing potassium phosphate (50 mM), MgCl2 (4.95 mM), KF (9.9 mM), NADPH (0.9 mM) and rat liver microsomal protein (20 μg). Rat liver microsomes are prepared by the method described in published European Patent Application No. 324,421 and stored in liquid nitrogen prior to assay. Assay vials are kept at 37° C. throughout the incubation.
The reaction is started with the addition of the substrate (1-[^3 H]-farnesyl pyrophosphate), final concentration 20 μM, and stopped after 15 minutes reaction time with the addition of 50 μl of 4% KOH. The reaction products are separated from unreacted substrate after application to a C-18 octadecyl 1ccBond column (Analytichem Int product No. 617101). An aqueous fraction is eluted with 250 μl of 0.1M KOH. Squalene is then eluted with 1.0 ml 10% ethyl acetate in hexane and radioactivity determined. The difference in radioactivity in the presence and absence of the test compound is used to determine the level of inhibition. […] The IC50 can then be determined from a plot of percentage inhibition against concentration of test compound.
(Liver microsomes are a subcellular fraction often used to study metabolism.)

The test system of assay [1] is de novo hepatic cholesterol synthesis. As to the kind of experiment: Acute rat cholesterol synthesis assay (de novo hepatic cholesterol synthesis from 14C-acetate). In kind it is in vivo. As to conditions: female rats, oral gavage, ip or iv (route not given), 14C-acetate ip 1 hour after dosing. The method, then: (b) Acute rat cholesterol synthesis assay.
This is an acute in vivo test in the rat to measure de novo hepatic cholesterol synthesis from exogenously administered ^14 C-acetate.
Female rats (35-55 g) are housed in reverse lighting conditions (red light from 0200h-1400h) for a period of about 2 weeks prior to test. Animals are allowed free access to chow and drinking water throughout this period. At test, animals should weigh 125-150 g.
Test compounds may be administered by oral gavage, dissolved or suspended in 0.5% polysorbate, or by ip or iv dosing. Control animals receive vehicle alone. After 1 hour the rats are injected ip with 25 μCi [2-^14 C]-acetate (NEN DUPONT. specific activity, 45-60 mCi/mmol NEC-085H, or AMERSHAM specific activity, 50-60 mCi/mmol CFA 14) in a volume of 0.25 ml saline (100 μCi/ml). After a further hour, rats are terminally anaesthetised with halothane and a blood sample obtained from the abdominal vena cava.
1 ml of plasma is lyophilised and then saponified in 2 ml ethanolic KOH (1 part 33% KOH, 9 parts ethanol) at 75° C. for 2 hours. After addition of an equal quantity of water, non-saponifiable lipids are extracted with two 5 ml volumes of hexane. The hexane extracts are evaporated to dryness and the residues dissolved in ethanol to determine cholesterol specific radioactivity. EC50 values can be determined in the standard way.

SMILES strings stand for the structures.

Take `c1ccc(-c2ccc(CNC3CN4CCC3CC4)cc2)cc1` (centres unmarked) [Example 5, 3-[(biphenyl-4-ylmethyl)amino]quinuclidine]: on Squalene synthase, the IC50 is 0.14 µM.
In general, ED50 refers to the dose that gives a 50% effect, or the effect in half of the subjects. Read a high ED50 as weaker potency. Regarding `Oc1ccc(-c2ccc(OCC3(O)CN4CCC3CC4)cc2)cc1` (centres unmarked) [Example 17, 3-(4'-hydroxybiphenyl-4-yloxymethyl)quinuclidin-3-ol], the median effective dose (ED50) in assay [1] came to 11 mg/kg.
